The subject of assay [1] is THP-1 derived macrophage cells. The assay is described as follows: Macrophage polarization by flow cytometry (CD11b, CD80, CD163 MFI). The class given is cell-based, human. Particulars: saponin 3 µg/mL, 24 h, PMA-differentiated THP-1, mean ± SD, n = 3. On the procedure: To differentiate THP-1 cells into M0-THP-1, cells were seeded at an initial concentration of 1 × 10^6 cells/mL in 6-well plates (Corning, USA) and treated with 15 ng/mL phorbol 12-myristate 13—acetate (PMA, Sigma USA). Then incubate at 5% CO2, 37 °C for 48 h[24]. To evaluate the potential of saponins with/without infectious bronchitis virus (IBV) D274 antigen on macrophage polarization, THP-1 cells were treated with saponins at 3 µg/mL and then incubated for 24 h with or without 4 µL of inactivated IBV D274 antigens (final titer of 1 HA). […] Based on the results of our previous research, the saponin concentration was selected as a non-cytotoxic concentration. At the end of the incubation period, the cells were collected by trypsinization and washed three times with PBS. Following, 1 µL of PE anti-human CD80 (Biolegend, CA), FITC anti-human CD163 (Biolegend, CA), and FITC anti-human CD11b (Biolegend, CA) antibodies were added into the cells pellet and incubated for 45 min at room temperature in the dark. The cells pellets underwent two PBS washes following incubation. Finally, the cells were subsequently analyzed by flow cytometry (BD Accuri, C5). 1 × 10^4 cells were counted for each sample group using flow cytometry. All data are the results of at least three independent experiments carried out in triplicate. Data are presented as mean ± standard error of the mean (SEM) of samples. The untreated stained macrophage cells with anti-human CD80, FITC anti-human CD163, and FITC anti-human CD11b were compared with the results of treated cells to obtain from M0 polarization to M1 and M2 or both.
Figure 2 (a) Saponins without antigen treatment, (b) Saponins treated with antigen. THP-1 cells were treated with 15 ng/ml PMA and 3 µg/ml saponins and 1 HA titer of IBV D274 induced in the saponins with antigen group for 24 h incubation. The macrophage polarization was determined with flow cytometry. Each value represents the mean ± standard deviation of three independents measurements. (P < 0.05*, P < 0.01**, P < 0.001***).

Assay [2] relates to PC-3 human prostate adenocarcinoma cells. As to the kind of experiment: MTT cytotoxicity on PC-3. The class given is cell-based. Particulars: 48 h, mean ± standard deviation, n = 3, – = Not detected. On the procedure: (§1) The human leukemia monocyte cell line (THP-1), human lung adenocarcinoma cell line (A549), human breast cancer cells (MDA-MB231), human prostate adenocarcinoma cells (PC3), human malignant glioma cell line (U87MG), human cervical gland carcinoma cells (HeLa), human hepatocellular carcinoma cells (HEP-G2) and normal human lung fibroblast cells (CCD-34-LU) as a healthy cell line in our stock used in this study were purchased from American Type Culture Collection (ATCC). THP-1 cells were cultured in Roswell Park Memorial Institute (RPMI 1640) medium and MDA-MB231, PC3, U87 MG, HeLa, HEP-G2, and CCD-34-LU cells cultivated in Dulbecco’s Modified Eagle’s Medium/Nutrient Mixture F-12 (DMEM/F12) (Gibco, USA) medium supplemented with 10% FBS (Gibco, USA), 100U/mL of penicillin 100 µg/mL of streptomycin (Gibco, USA), and 2 mM L-glutamine (Gibco, USA).
(§2) Cytotoxicity of saponins (1–4) and their prosapogenins (2a–4a) were tested against A549, MDA-MB-231, PC-3, U87MG, HeLa, HepG-2 cancer cells and CCD34-Lu healthy cell line using MTT [3-(4,5-dimethylthiazole-2-yl)-2,5-diphenyltetrazolium bromide)] assay (Acros Organics, New Jersey, USA)[11], [23]. For this purpose, 1 × 10^5 cells/mL of all the cell lines were seeded in 96-well plates (Corning, USA) and cultivated in the at 37 °C overnight. After the incubation, the cells were incubated with different concentrations of saponins (50, 5, and 0.5 µg/mL), and doxorubicin (Sigma, USA) (20, 2, and 0.2 µg/mL) for 48 h at 37 °C. Then, the MTT was added as 20 μL (from the stock concentration of 2.5 mg/mL) to all wells and further incubated for 4 h at 37 °C. Following the incubation, the medium was removed and 150 µL DMSO was added to dissolve the formed formazan crystals. After the formazan crystals were completely dissolved, the optical density (OD) was measured at 570 nm with an UV/Vis microplate spectrophotometer (Thermo Fisher Scientific, USA). All data are the results of at least three independent experiments carried out in triplicate. Data are presented as mean ± standard error of the mean (SEM) of samples. The IC50 value was calculated using the GraphPad Prism 8 (USA) program based on the calculated percent viability values and absorbance values. The percentage of viability was determined by Eq. (1):1 %Viablecells=absorbanceoftreatedcells-absorbanceofblank/absorbanceofcontrol-absorbanceofblank×100

For assay [3], the system named is A549 human lung adenocarcinoma cell line. As to the kind of experiment: MTT cytotoxicity on A549. In kind it is cell-based. The settings on record: mean ± standard deviation, n = 3, – = Not detected. The protocol:
as §1, §2

Assay [4] concerns THP-1 originated-macrophage. As to the kind of experiment: MTT cytotoxicity on THP-1 originated macrophages. In kind it is cell-based, human. Particulars: mean ± standard deviation, n = 3, – = Not detected.
The test system of assay [5] is HeLa human cervical gland carcinoma cells. As to the kind of experiment: MTT cytotoxicity on HeLa. The settings on record: 48 h, mean ± standard deviation, n = 3, – = Not detected. In kind it is cell-based. On the procedure:
as §1, §2

Assay [6] concerns HepG-2 human hepatocellular carcinoma cells. The assay is described as follows: MTT cytotoxicity on HepG-2. In kind it is cell-based. Particulars: mean ± standard deviation, n = 3, – = Not detected. On the procedure: as §1, §2
Assay [7] has as its system MDA-MB-231 human breast cancer cells. The assay is described as follows: MTT cytotoxicity on MDA-MB-231. In kind it is cell-based. The settings on record: mean ± standard deviation, n = 3, – = Not detected. The protocol:
as §1, §2

Assay [8] has as its system CCD-34Lu normal human lung fibroblast cells. The assay is described as follows: MTT cytotoxicity on CCD-34Lu healthy cells. The class given is cell-based. The settings on record: 48 h, mean ± standard deviation, n = 3, – = Not detected. On the procedure: as §1, §2
Assay [9] concerns U87MG human malignant glioma cell line. The assay is described as follows: MTT cytotoxicity on U87MG. The class given is cell-based. The settings on record: 48 h, mean ± standard deviation, n = 3, – = Not detected. On the procedure:
as §1, §2

Setting [10] is: with inactivated IBV D274 antigen (1 HA).

For orientation: IC50 means the concentration that inhibits the measured activity by half. Read a low IC50 as higher potency.

Marks after values point to notes of the source that are not given here. A value given as a limit tells only on which side of the number the result lay.

For the molecule `C[C@@H]1O[C@@H](O[C@H]2[C@H](O[C@H]3CC[C@@]4(C)C(CC[C@]5(C)C4CC=C4C6CC(C)(C)CC[C@]6(C(=O)O[C@@H]6O[C@H](CO[C@@H]7O[C@H](CO)[C@@H](O)[C@H](O)[C@H]7O)[C@@H](O)[C@H](O)[C@H]6O)CC[C@]45C)[C@]3(C)CO)O[C@H](CO)[C@H](O)[C@@H]2O)[C@H](O)[C@H](O)[C@H]1O` (stereo partly drawn) [Compound 4, 3-O-α-L-rhamnopyranosyl-(1 → 2)-β-D-galactopyranosyl-hederagenin-28-O-β-D-glucopyranosyl-(1 → 6)-β-D-glucopyranosyl ester], the “MFI of CD 11b (M0 marker)” value in assay [1] (setting [10]) was 32,925.30 ± 947.75; in assay [1] (without antigen), 27,324.70 ± 2398.39. The “MFI of CD80 (M1 marker)” value is listed as 4593.32 ± 951.60 in [1] (setting [10]) and 4,380.00 ± 169.38 in assay [1] (without antigen). Moreover, the “MFI of CD163 (M2 marker)” value in assay [1] (setting [10]) is reported as 8203.00 ± 246.09**; in assay [1] (without antigen), 6,755.64 ± 206.67**. For the same molecule, the IC50 was > 45.2 µM in assay [2] (Homo sapiens); > 45.2 µM in assay [3] (Homo sapiens, A549, 48 h); > 45.2 µM in assay [4] (Homo sapiens, THP-1, 48 h); > 45.2 µM in [5] (Homo sapiens, HeLa); > 45.2 µM in assay [6] (Homo sapiens, HepG2, 48 h); > 45.2 µM in [7] (Homo sapiens, MDA-MB-231, 48 h). Further, the IC50 in assay [8] (Homo sapiens, Fibroblast) was > 45.2 µM; in assay [9] (Homo sapiens, U-87 MG) it was > 45.2 µM.
As for `C[C@@H]1O[C@@H](O[C@H]2[C@H](O[C@H]3CC[C@@]4(C)[C@@H](CC[C@]5(C)[C@@H]4CC=C4[C@@H]6CC(C)(C)CC[C@]6(C(=O)O)CC[C@]45C)[C@]3(C)CO)O[C@H](CO)[C@H](O)[C@@H]2O)[C@H](O)[C@H](O)[C@H]1O` [Compound 4a, 3-O-α-L-rhamopyranosyl-(1 → 2)-β-D-galactopyranosyl hederagenin], the “MFI of CD 11b (M0 marker)” value in assay [1] (setting [10]) was 30,124.70 ± 913.74; in assay [1] (without antigen) it was 30,031.76 ± 1486.58. For the same molecule, the “MFI of CD80 (M1 marker)” value in assay [1] (setting [10]) is recorded as 4604.40 ± 128.49; in assay [1] (without antigen), 4,552.00 ± 947.76. Further, the IC50 in assay [2] was > 64 µM; in assay [3] (48 h) it was 8.13 ± 0.01 µM; in [4] (48 h), 35.7 ± 4.9 µM; in assay [5] it was 16.3 ± 4.75 µM; in assay [6] (48 h), > 64 µM; in assay [7] (48 h), 8.43 ± 0.15 µM. Also, the IC50 in assay [8] and in assay [9] was > 64 µM in each case.

Values taken from PMC10560666, “Four new triterpene saponins from Cephalaria speciosa and their potent cytotoxic and immunomodulatory activities” (Scientific Reports, 2023).
